# Laboratory results published in patent publication US20150284360A1, “AMIDE DERIVATIVES OF ANILINE-RELATED COMPOUNDS AND COMPOSITIONS THEREOF” (C&C BIOPHARMA, LLC, priority 2014, published 2015).
# Columns and labels:
# [1] = In vivo conversion of prodrug Lys-CC30.2HCl to parent drug CC30 in a rat after intravenous administration (plasma, HPLC-MS); design: species or system Sprague-Dawley rat; conditions: for HPLC-MS Peak Area of Parent drug, CC30 in the rat: rat plasma after Lys-CC30.2HCl 2 mg/kg intravenous; for HPLC-MS Peak Area of Prodrug, Lys-CC30•2HCl in the rat: rat plasma, Lys-CC30.2HCl 2 mg/kg intravenous
# Procedure: A Male Sprague-Dawley rat weighing 200-220 g was used to study the pharmacokinetics of the prodrug Lys-CC30.2HCl. Food was prohibited for 12 hours before the experiment, but water was freely available. Blood samples (0.2 ml) were collected through orbital venous plexus blood into heparinized 1.5 ml polyethene tubes at 0, 2, 5, 10, 15, 20, 30, 45 and 60 minute time points after the intravenous administration of Lys-CC30.2HCl (2 mg/kg). The samples were immediately centrifuged at 3000 g for 10 minutes. The plasma obtained (100 μl) was stored at −20° C. until analyzed. Plasma Lys-CC30.2HCl and parent drug CC30 concentrations in the collected blood samples were analyzed by HPLC-MS.
# The parent drug was detected in the rat for at least 60 minutes, whereas the prodrug was no longer detected after 20 minutes (Table 11)(FIG. 10B).
# [2] = In vitro conversion of prodrug Lys-CC30.2HCl to parent drug CC30 in rat plasma (HPLC-MS); type: in vitro ADME; conditions: for HPLC-MS Peak Area of Parent Drug, CC30: formed from Lys-CC30•2HCl in rat plasma; for % Conversion of prodrug to CC30 / HPLC-MS Peak Area of Prodrug, Lys-CC30•2HCl: rat plasma
# Procedure: Lys-CC30.2HCl (2.53 mg) was dissolved in 200 μl of water to obtain an aqueous solution concentration of 12.6 mg/ml. 4 μl of the Lys-CC30.2HCl solution was thoroughly mixed with 100 μl of rat plasma. This mixture was divided into 10 aliquots (10 μl) placed in 1.5 ml tubes. One tube was placed on ice and was used as the 0 time point. The other 9 samples were placed in an incubator at 37° C. At 5, 10, 30, 60, 120, and 240 minutes, a tube was taken out from incubation and placed on ice to stop or slow down the reaction. The samples were diluted with water (50-fold), mixed, and pelleted by centrifugation at 4° C. and 14,000 rpm for 5 min. The supernatant (˜200-300 μl) was used for HPLC-MS analysis. The % conversion was calculated by dividing the peak area of the parent drug by the peak area of the prodrug at time 0, and then multiplying by 100 (Table 10).
# After 60 minutes of incubation, almost half (44.7%) of the Lys-CC30.2HCl prodrug converted to CC30 (Table 10).
# [3] = Cyclization in simulated gastric fluid (SGF), acidic condition; type: physicochemical; conditions: SGF pH=1.3 with pepsin, 37° C., 4 hours
# Procedure: Simulated gastric fluid (SGF) was prepared by thoroughly mixing diluted hydrochloric acid (16.4 ml), water (800 ml), and 10 g of pepsin together, and then bring the volume up to 1000 ml with water (pH=1.3). Diluted hydrochloric acid was prepared by mixing 234 ml of concentrated hydrochloric acid with water to a final volume of 1000 ml. Lys-CC30.2HCl (2.53 mg) or CC30 were separately dissolved in 200 μl of water to obtain an aqueous solution concentration of 12.6 mg/ml. 4 μl of the Lys-CC30.2HCl solution and the CC30 solution were thoroughly mixed with 1 ml of SGF in separate tubes. The mixtures were placed in an incubator at 37° C. for 4 hours. The samples were diluted with water 50-fold, mixed, and pelleted by centrifugation at 4° C. and 14,000 rpm for 5 min. The supernatants (˜200-300 μl) were used for HPLC-MS analysis.
# [4] = Solubility of a compound in water; type: physicochemical; conditions: compound added until saturated
# Procedure: Solubility of a compound was obtained by adding the compound into water of known volume (e.g. 1 mL) until saturated, measuring the amount of the compound added, and obtaining the solubility of the compound in water (mg/mL) (Table 9).
# [5] = after Lys-CC30.2HCl 2 mg/kg intravenous
smiles,measurement,setting,value
Nc1ccccc1NC(=O)CCCCCC(=O)Nc1cccc(Br)c1 [CC30],Time for which the parent drug was detected in the rat,[1]; [5],at least 60 minutes
same,"HPLC-MS Peak Area of Parent drug, CC30 in the rat",[1]; 0 min,4792335
same,"HPLC-MS Peak Area of Parent drug, CC30 in the rat",[1]; 2 min,2994581
same,"HPLC-MS Peak Area of Parent drug, CC30 in the rat",[1]; 5 min,2162228
same,"HPLC-MS Peak Area of Parent drug, CC30 in the rat",[1]; 10 min,1225981
same,"HPLC-MS Peak Area of Parent drug, CC30 in the rat",[1]; 15 min,712348
same,"HPLC-MS Peak Area of Parent drug, CC30 in the rat",[1]; 20 min,425079
same,"HPLC-MS Peak Area of Parent drug, CC30 in the rat",[1]; 30 min,232663
same,"HPLC-MS Peak Area of Parent drug, CC30 in the rat",[1]; 45 min,199152
same,"HPLC-MS Peak Area of Parent drug, CC30 in the rat",[1]; 60 min,44686
same,"HPLC-MS Peak Area of Parent Drug, CC30","[2]; 37° C., 5 min",880074
same,"HPLC-MS Peak Area of Parent Drug, CC30","[2]; 37° C., 10 min",1131442
same,"HPLC-MS Peak Area of Parent Drug, CC30","[2]; 37° C., 30 min",2039869
same,"HPLC-MS Peak Area of Parent Drug, CC30","[2]; 37° C., 60 min",2762843
same,"HPLC-MS Peak Area of Parent Drug, CC30","[2]; 37° C., 120 min",4280514
same,"HPLC-MS Peak Area of Parent Drug, CC30","[2]; 37° C., 240 min",4438887
same,"HPLC-MS Peak Area of Parent Drug, CC30",[2]; time 0 min (on ice),617276
same,Fraction that formed an inactive cyclized product,[3],5%
same,Solubility in Water,[4],0.006 mg/mL
Cl.Cl.NCCCC[C@H](N)C(=O)Nc1ccccc1NC(=O)CCCCCC(=O)Nc1cccc(Br)c1 [Lys-CC30•2HCl],Time after which the prodrug was no longer detected in the rat,[1]; [5],20 min
same,Conversion in the rat to the parent drug CC30 (in words),"[1]; after injection of Lys-CC30.2HCl 2 mg/kg intravenous, time zero",immediately started converting
same,"HPLC-MS Peak Area of Prodrug, Lys-CC30•2HCl in the rat",[1]; 0 min,5199661
same,"HPLC-MS Peak Area of Prodrug, Lys-CC30•2HCl in the rat",[1]; 2 min,2388965
same,"HPLC-MS Peak Area of Prodrug, Lys-CC30•2HCl in the rat",[1]; 5 min,838012
same,"HPLC-MS Peak Area of Prodrug, Lys-CC30•2HCl in the rat",[1]; 10 min,173555
same,"HPLC-MS Peak Area of Prodrug, Lys-CC30•2HCl in the rat",[1]; 15 min,40200
same,"HPLC-MS Peak Area of Prodrug, Lys-CC30•2HCl in the rat",[1]; 20 min,8674
same,% Conversion of prodrug to CC30,"[2]; 37° C., 5 min",14.2%
same,"HPLC-MS Peak Area of Prodrug, Lys-CC30•2HCl","[2]; 37° C., 5 min",5900784
same,% Conversion of prodrug to CC30,"[2]; 37° C., 10 min",18.3%
same,"HPLC-MS Peak Area of Prodrug, Lys-CC30•2HCl","[2]; 37° C., 10 min",5623041
same,% Conversion of prodrug to CC30,"[2]; 37° C., 30 min",33.0%
same,"HPLC-MS Peak Area of Prodrug, Lys-CC30•2HCl","[2]; 37° C., 30 min",5199304
same,% Conversion of prodrug to CC30,"[2]; 37° C., 60 min",44.7%
same,"HPLC-MS Peak Area of Prodrug, Lys-CC30•2HCl","[2]; 37° C., 60 min",3678701
same,% Conversion of prodrug to CC30,"[2]; 37° C., 60 min, listed as Lys-CC30.2HCl",44.7%
same,% Conversion of prodrug to CC30,"[2]; 37° C., 120 min",69.2%
same,"HPLC-MS Peak Area of Prodrug, Lys-CC30•2HCl","[2]; 37° C., 120 min",921181
same,% Conversion of prodrug to CC30,"[2]; 37° C., 240 min",71.8%
same,"HPLC-MS Peak Area of Prodrug, Lys-CC30•2HCl","[2]; 37° C., 240 min",498331
same,"HPLC-MS Peak Area of Prodrug, Lys-CC30•2HCl","[2]; 37° C., time 0 min (on ice)",6182672
same,% Conversion of prodrug to CC30,"[2]; time 0 min, parent peak area / prodrug peak area at time 0 x 100",10.0%
same,Formation of cyclized product (in words),[3],No similarly cyclized product was formed
same,Solubility in Water,[4],750 mg/mL
